One compound from patent US10702526B2, “Inhibitors of immune checkpoint modulators and related methods” (eFFECTOR Therapeutics, Inc., priority 2015, dated 2020) can be followed below.

Assay [1] has as its system IL-2 production in primary T cells. In words: IL-2 ELISA on supernatants of activated primary T cells. The settings on record: T cells activated with anti-CD3/anti-CD28 beads. It counts as cell-based, human. The protocol: About 3×10^5 T cells were activated using anti-CD3/anti-CD28 magnetic beads as per manufacturer's protocol (Dynabeads®, Invitrogen, Carlsbad, Calif.). Briefly, a ratio of fresh primary T cells to beads used to activate the T cells was 1:1 (for every 80,000 T cells, 2 μl of beads were added). Test cells were treated simultaneously with various concentrations of MNK-specific inhibitor Compound 107 (0.01, 0.1, 1, 3 and 10 μM). After 48 hours, culture supernatants were harvested and examined via sandwich ELISA for the presence of IL-2 using human IL-2 ELISA DuoSet® (R&D Systems, Minneapolis, Minn.). […] After fixation, cells were washed twice with flow buffer and re-suspended in flow buffer and assessed for fluorescence using BD Accuri C6 cytometer. Data were analyzed using the C6 cytometer software (BD Biosciences, San Jose, Calif.).

In assay [2] the test system is T effector (CD3+/CD8+) and T regulatory (CD4+/FOXP3+) cells. Kind of assay: TE:Treg ratio in tumor infiltrating lymphocytes of CT26 allograft tumors (flow cytometry). It counts as in vivo, mouse. The settings on record: TILs after 4 days of treatment. As for the experimental part:
Mice having established CT26 tumors (100-200 mm^3) were treated with compound 107, anti-PD1 antibody or a combination of compound 107 and anti-PD-1 antibody, as described in Example 4. After 4 days of treatment, the mice were euthanized and tumors were excised. A single cell suspension was generated by dissecting excised tumors into fine pieces with a razor blade, incubating with collagenase, hyaluronidase and DNAse I (Worthington Biochemical, Lakewood N.J.) in RPMI, incubating in 1× trypsin-EDTA, and finally passaging through a 70 micron cell strainer filter (BD Biosciences, San Jose Calif.). […] For samples assessed for CD45/CD3/CD8, cells were washed twice with flow buffer and incubated with fixation buffer for 10 minutes at 4° C. […] Samples assessed for CD45/CD4 were further processed for intracellular staining of FOXP3 using an anti-FOXP3 antibody (FOXP3-PE, BD Biosciences) and the FOXP3/Transcription Factor staining buffer set (eBiosciences, San Diego Calif.) following the manufacturer's protocol. […] Data were collected and analyzed using a BD Accuri C6 flow cytometer (BD Biosciences, San Jose Calif.). The ratio of TE to Treg cells was calculated by determining the percentage of CD3^+/CD8^+ cells present in the CD45^+ lymphocyte population and dividing by the percentage of CD4^+/FOXP3^+ present from the same population.

The next assay concerns CT26 tumor. Kind of assay: CT26 tumor re-challenge of previously treated mice. It counts as in vivo, mouse. As for the experimental part:
Previously treated allograft mice that responded to therapy or were tumor-free from each treatment group (8 days post-treatment) were tested for development of long-term immune memory by re-implanting new CT26 tumors and assessing for tumor growth compared to naïve BALB/c mice. Briefly, treated mice were re-implanted and naïve were implanted for the first time with tumor cells in the left flank region in 0.1 ml of growth media and an equal 0.1 ml volume ratio of Matrigel® matrix (1:1 volume to volume ratio), as before. Tumors in these untreated mice were measured following implantation as described herein.

Assay [3] relates to PD-1 expression on Jurkat cells. In words: PD-1 expression on PHA/PMA-activated Jurkat T cells (flow cytometry). It counts as cell-based, human. The protocol: To examine the effect of MNK-specific inhibitors on PD-1 expression, Jurkat cells (Clone E6.1, ATCC, transformed T cells) were used, which express PD-1 when activated through T cell receptor (TCR) signaling. Briefly, Jurkat cells were grown in 1×RPMI with 1× Pen/Strep, and 10% FBS, then about 3×10^6 Jurkat cells were activated in presence of 1 μg/mL PHA (Sigma) and 50 ng/mL PMA (Sigma). Test Cells were treated simultaneously with various concentrations of MNK-specific inhibitor Compound 107 (0, 0.01, 0.1, 1, 3 and 10 μM). After 48 hours, culture supernatants were harvested and examined via sandwich ELISA for the presence of IL-2 using human IL-2 ELISA DuoSet® (R&D Systems, Minneapolis, Minn.). The level of PD-1 on Jurkat cells was examined by incubating cells with fixable dead cell stain (1:20,000; BD Biosciences, San Jose, Calif.) for 15 minutes at 4° C., washed twice with flow staining buffer (1×PBS, 4% FBS and 1 mM EDTA), incubated with human FcR block, then contacted with allophycocyanin (APC) conjugated anti-PD-1 antibody (Biolegend, San Diego, Calif.) for 30 minutes at 4° C., washed two times with flow buffer, and finally cells were fixed with fixation buffer for 20 minutes at 4° C. After fixation, cells were washed twice with flow buffer and re-suspended in flow buffer and assessed for fluorescence using BD Accuri C6 flow cytometer. Data were analyzed using the C6 cytometer software (BD Biosciences, San Jose, Calif.).

Each structure is given as a SMILES string.

As for `Cc1cc(Nc2cc(N)ncn2)c(=O)n2c1C(=O)NC21CCCCC1.Cl` [Compound 107], in assay [1], the IL-2 production entry is given as “did not detectably alter IL-2 production”. The “average TE:Treg ratio” value in assay [2] stood at 9.7. For the same compound, in the assay on CT26 tumor (8 days after tumor implant), the “Mean Tumor Volume (mm^3) ± SEM” value was 22.4 ± 4.5 mm^3. For the same compound, in the assay on CT26 tumor (animals with measurable tumor / group, no further drug treatment), the “Tumor Formation” value is on record as 0/4. Besides, in assay [3] (Jurkat T cell assay, MNK-specific inhibitors), the “% PD-1 + Inhibition” value is listed as “+++ (+++ = 50-75%)”. Also, the PD-1 expression result in assay [3] (Jurkat cells with PHA and PMA, 0.01, 0.1, 1, 3 and 10 μM) is recorded as “reduced in a dose dependent manner”. In addition, the “reduction in the expression of PD-1 as compared to control” value in assay [3] (PHA/PMA activated Jurkat T cells, highest concentration, 48 hours) is given as not above 50%.
